# Where a name gives a salt, the structure may show the parent alone.
# Tests used:
# [1] = molecular target: T1, recombinant Nav 1.3 channels (Homo sapiens, UniProt Q9NY46); assay: Patch clamp studies of sodium currents inhibition in HEK293 cells; format: cell-based; details: tonic block, preconditioning −50 mV (half maximal steady-state inactivated condition); read-out: IC50 (Vhalf)
# T1 construct: expressed in transfected cells; host or cells: HEK293 cells
# Procedure: Cells and methods: Functional inhibition of the sodium currents was studied using whole cell patch clamp methods (Hamill O. P., Marty A., Neher E., Sakmann B., Sigworth F. J., Pflugers Arch. (1981) 391 (2): 85-100) on HEK293 cells expressing recombinant Nav 1.3 channels. Membrane currents were recorded as described in the example above.
# For sodium current recording control bath solution contained (mM): NaCl (80), Choline chloride (38), CaCl2 (1.3), MgCl2 (2), KCl (2), CdCl2 (0.4), NiCl2 (0.3), TEA.Cl (20), Hepes (10), Glucose (10). Internal pipette solution consisted of (mM): EGTA (10), NaCl (10), CaCl2 (1.3), MgCl2 (2), Hepes (10), CsF (130), MgATP (1).
# (§1) Compounds were dissolved as 20 mM stock solutions in DMSO and then diluted to the final concentration in the external solutions.
# Voltage protocols and data analyses: A two-step protocol was used to determine the voltage dependence of the block:
# sodium current was activated by a 30 ms step pulse to 10 mV (test pulse) from a 2000 ms preconditioning potential of −100 mV (resting condition) or −50 mV (half maximal steady-state inactivated condition), respectively.
# The amplitude of sodium current peaks evoked by the respective test pulses at a frequency of 0.06 Hz were measured before and after exposure to the test substance. Tonic block of currents was calculated as the difference between the Nacurrent peak measured at the end of a stabilization period in the control external bath solution and the current peak measured at the end of test substance perfusion period (when steady state is reached) divided by control peaks. Drug concentration-inhibition curves were obtained by plotting tonic blocks versus drug concentrations. Dose-response curves were fitted to the tonic block data, according to the logistic equation: y=A2+(A1−A2)/[1+(x/IC50)^p]. A1 and A2 are fixed values of 0 and 1 corresponding to 0 and 100% current inhibition, x is the drug concentration, IC50 is the drug concentration resulting in 50% current inhibition and p is the corresponding slope factor.
# [2] = molecular target: recombinant human N-type channels, h α1B (hCav2.2)+β1b+α2δ-1 subunits (Homo sapiens, UniProt Q00975); assay: Patch clamp studies of calcium currents inhibition in HEK293 cells; format: cell-based; details: tonic block, preconditioning −50/−55 mV (half maximal steady-state inactivated condition); read-out: IC50 (Vhalf)
# Procedure: Functional inhibition of the N-type Ca currents was studied using whole cell patch clamp methods (Hamill O. P., Marty A., Neher E., Sakmann B., Sigworth F. J. Pflugers Arch. (1981) 391: 85-100) on HEK293 cells expressing recombinant human N-type channels, obtained after transient transfection of h α1B (hCav2.2)+β1b+α2δ-1 subunits.
# Membrane currents were recorded and filtered at 5 kHz with an Axon Axopatch 200B amplifier and digitized with an Axon Digidata 1322A (Axon Instruments, CA, USA). Voltage clamping of membrane potentials and data acquisition were controlled online with Axon pClamp8 software. Measuring and reference electrodes were AgCl—Ag electrodes. Cells had initial seal resistances of >1 GΩ and access resistances of 4.2±0.2 MΩ. Cells were continuously superfused with extracellular solutions using a Biologic RSC-200.
# For calcium currents recording the control bath solution contained (mM): Choline chloride (70), MgCl2 (1), BaCl2 (20), TEA.Cl (50), Hepes (10), Glucose (10). Internal pipette solution consisted of (mM): CsCl (140), EGTA (10), MgCl2 (2), Hepes (10), MgATP (1), GTP Tris (0.3).
# as §1
# A two-step protocol was used to determine the voltage dependence of the block:
# N-type current was activated by a 600 ms step pulse to +10 mV (test pulse) from a 5000 ms preconditioning potential of −110 mV (resting condition) or −50/−55 mV (half maximal steady-state inactivated condition), respectively.
# The amplitude of calcium current peaks evoked by the respective test pulses at a frequency of 0.06 Hz were measured before and after exposure to the test substance. Tonic block of currents was calculated as the difference between the peak calcium current measured at the end of a stabilization period in the control external bath solution and peak currents measured at the end of test substance perfusion period (when steady state is reached) divided by control peaks. […]
# L-type calcium channels = format: cell-based, mouse; details: AtT20/D16v-F2 cells, ω-conotoxin 1 μM, 100 mM KCl depolarization
# N-type calcium channels = N-type calcium channels (Homo sapiens, UniProt Q00975); assay: N-type calcium channel influx assay (fluorescence); format: cell-based; details: differentiated IMR32 cells, nifedipine 1 μM, 100 mM KCl depolarization; read-out: IC50
# TTXs sodium channels = assay: TTXs-sodium channel influx assay (membrane potential fluorescence); format: cell-based, rat; details: ND7/23 cells, veratridine 100 μM
# Procedure: ND7/23 rat dorsal root ganglion-derived cell line endogenously expresses a mixed population of TTXs sodium channels (such as Nav1.3, Nav1.2, Nav1.1, Nav1.6). These cells lack of TTXr sodium channels as shown by the absence of their respective transcripts. ND7/23 cells were grown in DMEM supplemented with 10% FBS and 1 mM sodium piruvate.
# The cells were seeded at 50,000 cells/well on 96 poly-L-lysine-coated plates and further incubated for 18-24 h before use.
# The Membrane Potential Kit Assay (Molecular Devices), based on a negatively charged fluorescent dye able to monitor changes in membrane potential caused by the sodium influx due to the channel opening, was used for the assay.
# Cells were incubated with the dye loading for 30 minutes at 25° C. Then, 100 nM of the toxin Anemonia sulcata (used as enhancer of the channel opener response) alone or in the presence of TTX (as reference standard) or test compound were added for further 15 minutes.
# The fluorescence (excitation: 530 nm, emission: 565 nm wavelength) was measured before and after (40-45 s) the automated injection of the sodium channel opener veratridine (100 μM) using a Victor plate reader (Perkin Elmer).
# The inhibition curves were calculated from 5 concentrations, each in triplicate, and the IC50 determined using a linear regression analysis.
# [3] = test system: maximal electroshock seizures in mice; assay: Maximal electroshock test (MES) in mice; format: in vivo, mouse; details: i.v., 5 minutes before testing
# Text: Animals and Apparatus: Male CDl mice weighing 25 g were used. The procedure described by White et al. (White H. S., Woodhead J. H., Franklin […]., and Wolf H. H. Antiepileptic Drugs (1995) 4th ed: 99-110, Raven Press, Ltd., New York) was followed. An Ugo Basile electroconvulsive generator (Model ECT UNIT 7801) was used to deliver an electrical stimulus sufficient to produce a hindlimb tonic extensor response in at least 97% of control animals. The stimulus was delivered intra-aurally through clip electrodes in mice (0.7 s of a 40 mA shock, with a pulse train of 80 Hz having a pulse duration of 0.4 ms). […] Ten mice were studied per group. Complete suppression of the hindlimb tonic extensor component of seizures was taken as evidence of anticonvulsant activity.
# MAO-B = molecular target: T2, MAO-B (Rattus norvegicus, UniProt P19643); assay: In vitro MAO-B enzyme activity radioenzymatic assay; format: biochemical; details: 100 μM compound, rat brain crude mitochondrial fraction, 14C-PEA substrate
# T2 construct: from tissue; host or cells: rat brain crude mitochondrial fraction
# T2 sequence (P19643 1-520): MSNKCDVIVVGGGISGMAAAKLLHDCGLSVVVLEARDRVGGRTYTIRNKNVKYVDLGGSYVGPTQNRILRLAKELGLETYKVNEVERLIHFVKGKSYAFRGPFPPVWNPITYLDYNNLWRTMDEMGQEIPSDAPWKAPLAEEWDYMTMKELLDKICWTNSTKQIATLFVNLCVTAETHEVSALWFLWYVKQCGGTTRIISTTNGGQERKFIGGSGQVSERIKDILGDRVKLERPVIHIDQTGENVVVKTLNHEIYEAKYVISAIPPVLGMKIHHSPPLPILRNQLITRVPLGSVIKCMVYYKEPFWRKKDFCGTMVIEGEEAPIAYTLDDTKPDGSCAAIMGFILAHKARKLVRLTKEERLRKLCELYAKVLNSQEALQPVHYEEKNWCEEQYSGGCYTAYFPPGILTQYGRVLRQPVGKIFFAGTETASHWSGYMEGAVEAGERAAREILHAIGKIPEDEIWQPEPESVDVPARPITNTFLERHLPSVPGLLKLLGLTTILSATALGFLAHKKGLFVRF
# Procedure: Male Wistar rats (Harlan, Italy—175-200 g) were sacrificed under light anaesthesia and brains were rapidly removed and homogenized in 8 volumes of ice-cold 0.32 M sucrose buffer containing 0.1 M EDTA, pH 7.4. The crude homogenate was centrifuged at 2220 rpm for 10 minutes and the supernatant recovered. The pellet was homogenized and centrifuged again. The two supernatants were pooled and centrifuged at 9250 rpm for 10 minutes at +4° C. The pellet was resuspended in fresh buffer and centrifuged at 11250 rpm for 10 minutes at +4° C. The resulting pellet was stored at −80° C.
# The enzyme activities were assessed with a radioenzymatic assay using the substrates ^14C-serotonin (5-HT) and ^14C-phenylethylamine (PEA) for MAO-A and MAO-B, respectively.
# The mitochondrial pellet (500 μg protein) was resuspended in 0.1 M phosphate buffer (pH 7.4). 500 μl of the suspension were added to a 50 μl solution of the test compound or buffer, and incubated for 30 min at 37° C. (preincubation) then the substrate (50 μl) was added. The incubation was carried out for 30 minutes at 37° C. (^14C-5-HT, 5 μM) or for 10 minutes at 37° C. (^14C-PEA, 0.5 μM).
# The reaction was stopped by adding 0.2 ml of 37% HCl or perchloric acid. After centrifugation, the deaminated metabolites were extracted with 3 ml of diethyl ether (5-HT) or toluene (PEA) and the radioactive organic phase was measured by liquid scintillation spectrometry at 90% efficiency. The amount of neutral and/or acidic metabolites formed as a result of MAO activity was obtained by measuring the radioactivity of the eluate.
# The activity of MAO in the sample, corresponding to a percentage of radioactivity compared with the control activity in the absence of the inhibitor, was expressed as nmoles of substrate transformed/mg protein/min.
# recombinant human N-type channels, h α1B (hCav2.2)+β1b+α2δ-1 subunits, sequence (Q00975 whole entry): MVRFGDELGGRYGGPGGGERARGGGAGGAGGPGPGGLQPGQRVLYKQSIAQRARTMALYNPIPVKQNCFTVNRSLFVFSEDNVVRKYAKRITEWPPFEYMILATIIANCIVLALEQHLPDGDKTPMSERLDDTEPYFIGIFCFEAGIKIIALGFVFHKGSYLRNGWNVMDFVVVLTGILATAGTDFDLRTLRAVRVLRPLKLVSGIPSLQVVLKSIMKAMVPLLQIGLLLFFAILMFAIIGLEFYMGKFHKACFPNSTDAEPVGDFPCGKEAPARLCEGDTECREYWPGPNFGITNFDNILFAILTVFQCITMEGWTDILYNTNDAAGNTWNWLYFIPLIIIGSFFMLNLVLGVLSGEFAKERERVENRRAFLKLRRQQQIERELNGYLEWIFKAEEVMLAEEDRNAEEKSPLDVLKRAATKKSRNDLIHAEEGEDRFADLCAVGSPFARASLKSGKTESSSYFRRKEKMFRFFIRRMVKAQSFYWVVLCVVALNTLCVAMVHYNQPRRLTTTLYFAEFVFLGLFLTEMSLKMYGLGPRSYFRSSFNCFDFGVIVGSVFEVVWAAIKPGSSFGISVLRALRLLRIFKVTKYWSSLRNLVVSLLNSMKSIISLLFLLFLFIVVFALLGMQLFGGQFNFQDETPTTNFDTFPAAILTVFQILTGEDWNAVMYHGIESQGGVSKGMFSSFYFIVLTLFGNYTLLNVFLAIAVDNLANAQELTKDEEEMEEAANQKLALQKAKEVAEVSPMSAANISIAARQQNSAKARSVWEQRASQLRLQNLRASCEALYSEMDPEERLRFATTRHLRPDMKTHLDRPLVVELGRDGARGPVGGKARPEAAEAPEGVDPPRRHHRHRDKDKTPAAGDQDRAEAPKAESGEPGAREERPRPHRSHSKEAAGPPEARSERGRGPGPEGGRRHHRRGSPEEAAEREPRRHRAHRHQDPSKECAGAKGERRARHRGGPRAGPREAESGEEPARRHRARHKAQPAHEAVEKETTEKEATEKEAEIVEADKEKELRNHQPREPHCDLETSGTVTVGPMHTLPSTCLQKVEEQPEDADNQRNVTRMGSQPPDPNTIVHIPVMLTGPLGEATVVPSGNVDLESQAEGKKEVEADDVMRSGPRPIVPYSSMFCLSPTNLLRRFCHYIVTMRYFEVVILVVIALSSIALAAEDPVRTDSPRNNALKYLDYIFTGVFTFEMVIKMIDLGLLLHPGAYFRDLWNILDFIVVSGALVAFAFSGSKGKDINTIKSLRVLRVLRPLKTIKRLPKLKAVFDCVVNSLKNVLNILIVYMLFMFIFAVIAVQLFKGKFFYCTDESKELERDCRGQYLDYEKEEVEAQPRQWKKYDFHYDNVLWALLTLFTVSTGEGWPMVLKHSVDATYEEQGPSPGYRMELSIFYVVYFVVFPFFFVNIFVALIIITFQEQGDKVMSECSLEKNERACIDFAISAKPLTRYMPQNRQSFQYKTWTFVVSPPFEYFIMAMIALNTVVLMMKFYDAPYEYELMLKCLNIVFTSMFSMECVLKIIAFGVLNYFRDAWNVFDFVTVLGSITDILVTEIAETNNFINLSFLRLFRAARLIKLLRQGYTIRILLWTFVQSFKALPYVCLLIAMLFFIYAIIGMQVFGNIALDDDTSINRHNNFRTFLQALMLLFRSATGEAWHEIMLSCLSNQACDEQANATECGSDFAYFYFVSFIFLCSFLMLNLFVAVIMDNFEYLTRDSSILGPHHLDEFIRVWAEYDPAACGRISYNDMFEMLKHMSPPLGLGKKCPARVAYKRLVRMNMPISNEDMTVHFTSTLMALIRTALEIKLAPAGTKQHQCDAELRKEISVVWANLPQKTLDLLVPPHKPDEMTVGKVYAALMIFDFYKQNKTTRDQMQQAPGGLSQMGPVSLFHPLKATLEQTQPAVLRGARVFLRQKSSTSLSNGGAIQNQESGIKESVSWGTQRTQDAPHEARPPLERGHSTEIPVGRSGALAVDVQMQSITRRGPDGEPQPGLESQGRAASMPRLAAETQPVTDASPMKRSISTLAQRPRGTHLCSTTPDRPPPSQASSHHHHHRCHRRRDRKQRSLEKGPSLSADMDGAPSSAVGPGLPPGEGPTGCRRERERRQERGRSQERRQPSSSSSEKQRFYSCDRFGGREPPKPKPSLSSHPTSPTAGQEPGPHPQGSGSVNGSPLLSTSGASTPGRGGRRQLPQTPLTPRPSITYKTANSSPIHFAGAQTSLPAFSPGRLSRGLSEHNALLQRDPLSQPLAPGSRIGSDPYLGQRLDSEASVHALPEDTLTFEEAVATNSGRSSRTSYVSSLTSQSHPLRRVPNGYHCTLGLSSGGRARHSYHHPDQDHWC
# recombinant human N-type channels, h α1B (hCav2.2)+β1b+α2δ-1 subunits, sequence (Q02641 whole entry partner): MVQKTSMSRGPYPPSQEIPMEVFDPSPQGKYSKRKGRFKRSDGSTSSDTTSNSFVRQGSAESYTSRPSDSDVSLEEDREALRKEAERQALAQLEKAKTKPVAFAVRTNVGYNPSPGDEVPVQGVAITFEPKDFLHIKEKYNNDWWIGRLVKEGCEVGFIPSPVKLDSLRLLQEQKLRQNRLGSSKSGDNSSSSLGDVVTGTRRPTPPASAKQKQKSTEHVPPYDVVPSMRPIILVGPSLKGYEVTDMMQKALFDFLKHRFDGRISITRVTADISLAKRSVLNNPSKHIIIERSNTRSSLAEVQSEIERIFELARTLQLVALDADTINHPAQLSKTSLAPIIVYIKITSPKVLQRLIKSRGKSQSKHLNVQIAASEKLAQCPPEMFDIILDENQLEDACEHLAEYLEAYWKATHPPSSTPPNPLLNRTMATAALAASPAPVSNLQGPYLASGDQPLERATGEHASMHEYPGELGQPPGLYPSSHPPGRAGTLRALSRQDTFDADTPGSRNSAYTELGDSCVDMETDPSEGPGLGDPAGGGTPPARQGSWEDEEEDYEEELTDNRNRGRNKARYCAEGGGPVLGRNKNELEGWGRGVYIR
# recombinant human N-type channels, h α1B (hCav2.2)+β1b+α2δ-1 subunits, sequence (P54289 25-956 partner limits assumed): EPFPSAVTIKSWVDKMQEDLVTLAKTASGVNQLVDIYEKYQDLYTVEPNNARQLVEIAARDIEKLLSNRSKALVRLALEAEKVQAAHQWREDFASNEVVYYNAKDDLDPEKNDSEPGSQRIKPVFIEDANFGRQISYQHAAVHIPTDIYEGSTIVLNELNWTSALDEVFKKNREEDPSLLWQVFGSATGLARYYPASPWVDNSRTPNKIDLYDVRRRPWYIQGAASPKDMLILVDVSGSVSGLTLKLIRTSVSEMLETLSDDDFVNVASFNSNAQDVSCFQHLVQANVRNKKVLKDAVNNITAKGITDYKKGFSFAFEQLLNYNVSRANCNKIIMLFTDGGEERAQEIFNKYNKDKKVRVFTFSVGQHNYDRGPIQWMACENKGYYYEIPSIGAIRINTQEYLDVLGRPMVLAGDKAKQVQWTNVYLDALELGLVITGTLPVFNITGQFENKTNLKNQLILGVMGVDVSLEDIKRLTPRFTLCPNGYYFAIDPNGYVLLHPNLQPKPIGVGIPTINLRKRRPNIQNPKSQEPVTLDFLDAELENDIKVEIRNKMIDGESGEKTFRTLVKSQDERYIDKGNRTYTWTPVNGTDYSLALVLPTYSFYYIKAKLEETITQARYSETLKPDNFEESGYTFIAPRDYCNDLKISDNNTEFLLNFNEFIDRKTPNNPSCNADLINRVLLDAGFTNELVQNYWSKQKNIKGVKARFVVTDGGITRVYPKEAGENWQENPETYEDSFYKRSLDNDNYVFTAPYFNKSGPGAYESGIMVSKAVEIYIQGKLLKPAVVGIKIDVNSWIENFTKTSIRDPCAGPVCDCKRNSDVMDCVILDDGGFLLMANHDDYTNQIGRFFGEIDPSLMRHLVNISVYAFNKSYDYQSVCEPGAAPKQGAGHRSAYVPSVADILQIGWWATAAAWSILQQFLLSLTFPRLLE
# recombinant human N-type channels, h α1B (hCav2.2)+β1b+α2δ-1 subunits, sequence (P54289 957-1103 partner limits assumed): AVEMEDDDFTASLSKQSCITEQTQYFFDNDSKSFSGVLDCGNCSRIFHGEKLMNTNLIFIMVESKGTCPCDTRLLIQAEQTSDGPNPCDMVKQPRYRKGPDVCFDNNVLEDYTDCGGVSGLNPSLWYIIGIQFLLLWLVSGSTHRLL
# N-type calcium channels, sequence (Q00975 whole entry): as the sequence (Q00975 whole entry) above
# N-type calcium channels, sequence (Q02641 whole entry partner): as the sequence (Q02641 whole entry partner) above
# N-type calcium channels, sequence (P54289 25-956 partner limits assumed): as the sequence (P54289 25-956 partner limits assumed) above
# N-type calcium channels, sequence (P54289 957-1103 partner limits assumed): as the sequence (P54289 957-1103 partner limits assumed) above
Compound,IC50 [1],IC50 [2],IC50 (L-type calcium channels),IC50 (N-type calcium channels),IC50 (TTXs sodium channels),50% Protection [3],inhibition at 100 µM (MAO-B)
"CNC(=O)CN(CCc1ccc(OCc2cccc(F)c2)c(OC)c1)CC1CC1 [Example 8, 2-[[2-[4-(3-Fluoro-benzyloxy)-3-methoxy-phenyl]-ethyl]-(cyclopropylmethyl)amino]-N-methyl-acetamide hydrochloride]",9.8 µM,5.2 µM,3.8 µM,2.1 µM,3.5 µM,,
"C[C@H](NCc1ccc(OCc2cccc(F)c2)cc1)C(N)=O [safinamide, (S)-(+)-2-[4-(3-fluoro-benzyloxy)-benzylamino]-propanamide, reference compound]",,,,,,(4.0 mg/kg/iv),100%
